Laboratory results: US8658604B2, “Template-fixed beta-hairpin peptidomimetics with protease inhibitory activity” (Polyphor Ltd, priority 2005, dated 2014)
Read-outs that look alike come from different tables or passages of the source. Where a SMILES comes first, the peptide text is derived from it. Bridges are numbered along the chain shown (N, C = ends). [ ]: non-standard residue; d: D form. Nle = CCCC[C@H](N)C(=O)O; Abu = CC[C@H](N)C(=O)O

Legend:
[1] = target: Coagulation Factor Xa, from uman plasma (Homo sapiens, UniProt P00742); assay: Enzymatic assay, coagulation factor Xa
HELA cells (Acc57) = assay: Cytotoxicity assay (MTT reduction), HELA cells; format: cell-based
Procedure: The cytotoxicity of the peptides to HELA cells (Acc57) and COS-7 cells (CRL-1651) was determined using the MTT reduction assay [see ref. 2 and 3, below]. Briefly the method was as follows: HELA cells and COS-7 cells were seeded at 7.0×10^3 and, respectively, 4.5×10^3 cells per well and grown in 96-well microtiter plates for 24 hours at 37° C. at 5% CO2. At this point, time zero (Tz) was determined by MTT reduction (see below). The supernatant of the remaining wells was discarded, and fresh medium and the peptides in serial dilutions of 12.5, 25 and 50 μM were pipetted into the wells. Each peptide concentration was assayed in triplicate. Incubation of the cells was continued for 48 hours at 37° C. at 5% CO2. Wells were then washed once with phosphate buffered saline (PBS) and subsequently 100 μl MTT reagent (0.5 mg/ml in medium RPMI1640 and, respectively, DMEM) were added to the wells. This was incubated at 37° C. for 2 hours and subsequently the medium was aspirated and 100 μl isopropanol were added to each well. The absorbance at 595 nm of the solubilized product was measured (OD595peptide). For each concentration averages were calculated from triplicates. The percentage of growth was calculated as follows: (OD595peptide-OD595Tz-OD595Empty well)/(OD595Tz-OD595Empty well)×100% and was plotted for each peptide concentration.
The LC 50 values (Lethal Concentration, defined as the concentration that kills 50% of the cells) were determined for each peptide by using the trend line function of EXCEL (Microsoft Office 2000) for the concentrations (50, 25, 12.5 and 0 μM), the corresponding growth percentages and the value −50, (=TREND(C50:C0,%50:%0,−50)).
The GI 50 (Growth Inhibition) concentrations were calculated for each peptide by using a trend line function for the concentrations (50, 25, 12.5 and 0 μg/ml), the corresponding percentages and the value 50, (=TREND (C50:C0,%50:%0,50).

[2] = target: T1, Elastase from human neutrophils (Homo sapiens, UniProt P08246); assay: Enzymatic assay, elastase
T1 sequence (P08246 30-267): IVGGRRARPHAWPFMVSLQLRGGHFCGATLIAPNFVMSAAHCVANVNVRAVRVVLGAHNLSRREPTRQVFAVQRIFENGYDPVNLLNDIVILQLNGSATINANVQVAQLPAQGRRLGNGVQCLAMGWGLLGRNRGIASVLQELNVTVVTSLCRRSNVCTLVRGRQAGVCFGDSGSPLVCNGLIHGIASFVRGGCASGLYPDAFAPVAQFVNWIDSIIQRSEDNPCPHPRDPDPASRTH

[3] = target: Trypsin, from human pancreas (Homo sapiens, UniProt P07477); assay: Enzymatic assay, trypsin; settings: at 100 μM
[4] = target: Chymotrypsin, from human pancreas (Homo sapiens, UniProt P17538); assay: Enzymatic assay, chymotrypsin
[5] = target: T2, CathepsinG, from human neutrophils (Homo sapiens, UniProt P08311); assay: Enzymatic assay, cathepsin G
T2 sequence (P08311 21-244): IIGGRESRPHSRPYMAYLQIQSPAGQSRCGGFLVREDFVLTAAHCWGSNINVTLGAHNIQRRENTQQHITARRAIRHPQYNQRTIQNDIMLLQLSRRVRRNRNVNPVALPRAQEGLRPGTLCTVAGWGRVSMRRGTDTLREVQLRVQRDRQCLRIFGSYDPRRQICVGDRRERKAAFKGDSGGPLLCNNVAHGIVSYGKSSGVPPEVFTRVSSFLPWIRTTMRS

Chymase, from human skin = target: T3, Chymase, from human skin (Homo sapiens, UniProt P23946); assay: Enzymatic assay, chymase
T3 sequence (P23946 22-247): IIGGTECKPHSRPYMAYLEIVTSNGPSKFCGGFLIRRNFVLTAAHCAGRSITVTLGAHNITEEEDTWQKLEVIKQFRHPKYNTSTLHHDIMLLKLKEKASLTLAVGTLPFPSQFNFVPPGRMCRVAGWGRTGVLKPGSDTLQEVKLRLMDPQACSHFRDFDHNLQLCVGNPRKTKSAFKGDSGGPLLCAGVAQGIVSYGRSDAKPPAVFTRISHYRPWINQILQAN

[6] = target: Thrombin, from Human Plasma (Homo sapiens, UniProt P00734); assay: Enzymatic assay, thrombin
[7] = system: Tryptase, from human lung; assay: Enzymatic assay, tryptase; settings: at 100 μM

Sequence of Chymotrypsin, from human pancreas (P17538 19-263): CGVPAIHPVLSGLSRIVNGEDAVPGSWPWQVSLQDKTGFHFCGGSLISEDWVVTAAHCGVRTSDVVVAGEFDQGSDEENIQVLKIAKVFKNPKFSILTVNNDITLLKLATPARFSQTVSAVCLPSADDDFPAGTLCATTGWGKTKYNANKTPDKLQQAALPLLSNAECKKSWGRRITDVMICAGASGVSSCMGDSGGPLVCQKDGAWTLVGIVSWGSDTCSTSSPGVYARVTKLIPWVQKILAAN
Sequence of Coagulation Factor Xa, from uman plasma (P00742 235-488 limits assumed): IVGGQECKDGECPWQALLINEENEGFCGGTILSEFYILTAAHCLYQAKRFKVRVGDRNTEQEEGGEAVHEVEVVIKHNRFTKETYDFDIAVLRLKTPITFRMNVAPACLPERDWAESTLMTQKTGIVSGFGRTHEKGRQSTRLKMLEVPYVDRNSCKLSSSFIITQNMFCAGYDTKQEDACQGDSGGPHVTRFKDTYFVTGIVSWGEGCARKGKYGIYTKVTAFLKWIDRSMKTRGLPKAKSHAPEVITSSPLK
Sequence of Coagulation Factor Xa, from uman plasma (P00742 41-179 limits assumed): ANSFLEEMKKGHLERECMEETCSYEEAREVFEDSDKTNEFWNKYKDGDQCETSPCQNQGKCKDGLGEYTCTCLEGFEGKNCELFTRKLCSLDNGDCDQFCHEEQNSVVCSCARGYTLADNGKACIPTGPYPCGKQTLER

Compound	FXa at 100 μM % [1] [%]	Cytotoxicity LC50/GI50 Hela cells (HELA cells (Acc57); Hela cells) [µM]	IC50 ([2]; Elastase IC50) [µM]	Trypsin at 100 μM % [3] [%]	IC50 [4] [µM]	Chymase at 100 μM % (Chymase, from human skin) [%]	Thrombin at 100 μM % [6] [%]	further results
CCCC[C@@H]1NC(=O)[C@@H]2CCCN2C(=O)[C@H]2CCCN2C(=O)[C@H](CCC(N)=O)NC(=O)[C@@H]2CSSC[C@H](NC1=O)C(=O)N[C@@H]([C@@H](C)O)C(=O)N[C@@H](C)C(=O)N[C@@H](CO)C(=O)N[C@@H]([C@@H](C)CC)C(=O)N1CCC[C@H]1C(=O)N1CCC[C@H]1C(=O)N[C@@H](CCC(N)=O)C(=O)N2 [Ex. 91] (HELM PEPTIDE1{[Nle].C.T.A.S.I.P.P.Q.C.Q.[dP].P}$PEPTIDE1,PEPTIDE1,2:R3-10:R3|PEPTIDE1,PEPTIDE1,1:R1-13:R2$$$V2.0)	19.4	79	0.028	0	48.1	4.7	13.5	Cathepsin G at 100 μM % ([5]; at 100 μM (stated in cell instead of IC50)): 45 at 100%
CCCCCC[C@@H]1NC(=O)[C@H](CO)NC(=O)[C@H](C)NC(=O)[C@H]([C@@H](C)O)NC(=O)[C@@H]2CSSC[C@H](NC(=O)[C@H](CCC(N)=O)NC(=O)[C@@H]3CCCN3C(=O)[C@@H]3CCCN3C1=O)C(=O)N[C@@H](Cc1ccc(O)cc1)C(=O)N1CCC[C@@H]1C(=O)N1CCC[C@H]1C(=O)N[C@@H](CCCC)C(=O)N2 [Ex. 80] (HELM PEPTIDE1{[Nle].C.T.A.S.[CCCCCC[C@H](N[*:1])C(=O)[*:2]].P.P.Q.C.Y.[dP].P}$PEPTIDE1,PEPTIDE1,2:R3-10:R3|PEPTIDE1,PEPTIDE1,1:R1-13:R2$$$V2.0)		12	0.035		> 20			
CC[C@H](C)[C@@H]1NC(=O)[C@@H]2CCCN2C(=O)[C@@H]2CCCN2C(=O)[C@H](CC(=O)O)NC(=O)[C@H]([C@H](C)O)NC(=O)[C@H](CCCCN)NC(=O)[C@H]([C@@H](C)O)NC(=O)[C@@H]2CSSC[C@H](NC1=O)C(=O)N[C@@H](CO)C(=O)N1CCC[C@@H]1C(=O)N1CCC[C@H]1C(=O)N[C@@H](Cc1ccccc1)C(=O)N2 [Ex. 24] (HELM PEPTIDE1{F.C.T.K.[C[C@H](O)[C@H](N[*:1])C(=O)[*:2]].D.P.P.I.C.S.[dP].P}$PEPTIDE1,PEPTIDE1,2:R3-10:R3|PEPTIDE1,PEPTIDE1,1:R1-13:R2$$$V2.0)		99						Tryptase at 100 μM % [7]: 0%
CCCC[C@@H]1NC(=O)[C@@H]2CCCN2C(=O)[C@@H](CC(=O)O)NC(=O)[C@H](Cc2ccc(O)cc2)NC(=O)[C@@H]2CSSC[C@H](NC1=O)C(=O)N[C@@H]([C@@H](C)O)C(=O)N[C@@H](C)C(=O)N[C@@H](CO)C(=O)N[C@@H]([C@@H](C)CC)C(=O)N1CCC[C@H]1C(=O)N1CCC[C@H]1C(=O)N[C@@H](CCC(N)=O)C(=O)N2 [Ex. 115] (HELM PEPTIDE1{[Nle].C.T.A.S.I.P.P.Q.C.Y.[dD].P}$PEPTIDE1,PEPTIDE1,2:R3-10:R3|PEPTIDE1,PEPTIDE1,1:R1-13:R2$$$V2.0)		51	0.038		27.8			
CCCC[C@@H]1NC(=O)[C@@H]2CCCN2C(=O)[C@H]2CCCN2C(=O)[C@H](Cc2ccc(O)cc2)NC(=O)[C@@H]2CSSC[C@H](NC1=O)C(=O)N[C@@H]([C@@H](C)O)C(=O)N[C@@H](C)C(=O)N[C@@H](CO)C(=O)N[C@@H](CCC(C)C)C(=O)N1CCC[C@H]1C(=O)N1CCC[C@H]1C(=O)N[C@@H](CCC(N)=O)C(=O)N2 [Ex. 83] (HELM PEPTIDE1{[Nle].C.T.A.S.[CC(C)CC[C@H](N[*:1])C(=O)[*:2]].P.P.Q.C.Y.[dP].P}$PEPTIDE1,PEPTIDE1,2:R3-10:R3|PEPTIDE1,PEPTIDE1,1:R1-13:R2$$$V2.0)		12	0.043		100			
CCCC[C@@H]1NC(=O)[C@@H]2CCCN2C(=O)[C@H]2CCCN2C(=O)[C@H](Cc2ccc(O)cc2)NC(=O)[C@@H]2CSSC[C@H](NC1=O)C(=O)N[C@@H]([C@@H](C)O)C(=O)N[C@@H](C)C(=O)N[C@@H](CO)C(=O)N[C@@H](CC1CCCCC1)C(=O)N1CCC[C@H]1C(=O)N1CCC[C@H]1C(=O)N[C@@H](CCC(N)=O)C(=O)N2 [Ex. 141] (HELM PEPTIDE1{[Nle].C.T.A.S.[Cha].P.P.Q.C.Y.[dP].P}$PEPTIDE1,PEPTIDE1,2:R3-10:R3|PEPTIDE1,PEPTIDE1,1:R1-13:R2$$$V2.0)	15.3	56		0		0	0	Tryptase At 100 μM % [7]: 44.5%; Chymotrypsin at 100 μM % ([4]; at 100 μM): 72.9%; Cathepsin G at 100 μM % ([5]; at 100 μM): 63.4 at 100%
CCCC[C@@H]1NC(=O)[C@H](C(C)C)NC(=O)[C@H]2CCCN2C(=O)[C@H](Cc2ccc(O)cc2)NC(=O)[C@@H]2CSSC[C@H](NC1=O)C(=O)N[C@@H]([C@@H](C)O)C(=O)N[C@@H](C)C(=O)N[C@@H](CO)C(=O)N[C@@H]([C@@H](C)CC)C(=O)N1CCC[C@H]1C(=O)N1CCC[C@H]1C(=O)N[C@@H](CCC(N)=O)C(=O)N2 [Ex. 125] (HELM PEPTIDE1{[Nle].C.T.A.S.I.P.P.Q.C.Y.[dP].V}$PEPTIDE1,PEPTIDE1,2:R3-10:R3|PEPTIDE1,PEPTIDE1,1:R1-13:R2$$$V2.0)	0	37	0.015	28.3	> 20	4.8	0	IC50 ([5]; Cathepsin G IC50): 18.3 µM
CCCC[C@@H]1NC(=O)[C@@H]2CCCN2C(=O)[C@H]2CCCN2C(=O)[C@H](CO)NC(=O)[C@@H]2CSSC[C@H](NC1=O)C(=O)N[C@@H]([C@@H](C)O)C(=O)N[C@@H](C)C(=O)N[C@@H](CO)C(=O)N[C@@H]([C@@H](C)CC)C(=O)N1CCC[C@H]1C(=O)N1CCC[C@H]1C(=O)N[C@@H](CCC(N)=O)C(=O)N2 [Ex. 93] (HELM PEPTIDE1{[Nle].C.T.A.S.I.P.P.Q.C.S.[dP].P}$PEPTIDE1,PEPTIDE1,2:R3-10:R3|PEPTIDE1,PEPTIDE1,1:R1-13:R2$$$V2.0)		100	0.041					Tryptase at 100 μM % [7]: 5.6%
Ex. 87: β-hairpin peptidomimetic of Table 1, template DPro-Pro (cyclo([Nle]C[Abu]ASIPPQCY); disulfide 2-10; also: DPro-Pro template, linkage not given here)								Cytotoxicity LC50/GI50 Hela cells (HELA cells (Acc57)): 65 µM; IC50 ([2]; read-out: Elastase IC50): 0.037 µM; IC50 ([4]; read-out: Chymotrypsin IC50): 107 µM
CC[C@H](C)[C@@H]1NC(=O)[C@@H]2CCCN2C(=O)[C@H]2CCCN2C(=O)[C@H](Cc2ccc(O)cc2)NC(=O)[C@@H]2CSSC[C@H](NC1=O)C(=O)N[C@@H]([C@@H](C)O)C(=O)N[C@@H](C)C(=O)N[C@@H](CO)C(=O)N[C@@H](CC(C)C)C(=O)N1CCC[C@H]1C(=O)N1CCC[C@H]1C(=O)N[C@@H](Cc1ccc(O)cc1)C(=O)N2 [Ex. 114] (HELM PEPTIDE1{I.C.T.A.S.L.P.P.Y.C.Y.[dP].P}$PEPTIDE1,PEPTIDE1,2:R3-10:R3|PEPTIDE1,PEPTIDE1,1:R1-13:R2$$$V2.0)		34	0.047					
